Target: T1, KIAA1033 WASH complex subunit 7 (Homo sapiens, UniProt Q2M389)
T1 construct: isoTOP-ABPP experiments performed in cell lysates (in vitro); endogenous in cells; host or cells: soluble proteome of human cancer cell lines (MDA-MB-231; Ramos and Jurkat also prepared)
T1 sequence (Q2M389 1-1173): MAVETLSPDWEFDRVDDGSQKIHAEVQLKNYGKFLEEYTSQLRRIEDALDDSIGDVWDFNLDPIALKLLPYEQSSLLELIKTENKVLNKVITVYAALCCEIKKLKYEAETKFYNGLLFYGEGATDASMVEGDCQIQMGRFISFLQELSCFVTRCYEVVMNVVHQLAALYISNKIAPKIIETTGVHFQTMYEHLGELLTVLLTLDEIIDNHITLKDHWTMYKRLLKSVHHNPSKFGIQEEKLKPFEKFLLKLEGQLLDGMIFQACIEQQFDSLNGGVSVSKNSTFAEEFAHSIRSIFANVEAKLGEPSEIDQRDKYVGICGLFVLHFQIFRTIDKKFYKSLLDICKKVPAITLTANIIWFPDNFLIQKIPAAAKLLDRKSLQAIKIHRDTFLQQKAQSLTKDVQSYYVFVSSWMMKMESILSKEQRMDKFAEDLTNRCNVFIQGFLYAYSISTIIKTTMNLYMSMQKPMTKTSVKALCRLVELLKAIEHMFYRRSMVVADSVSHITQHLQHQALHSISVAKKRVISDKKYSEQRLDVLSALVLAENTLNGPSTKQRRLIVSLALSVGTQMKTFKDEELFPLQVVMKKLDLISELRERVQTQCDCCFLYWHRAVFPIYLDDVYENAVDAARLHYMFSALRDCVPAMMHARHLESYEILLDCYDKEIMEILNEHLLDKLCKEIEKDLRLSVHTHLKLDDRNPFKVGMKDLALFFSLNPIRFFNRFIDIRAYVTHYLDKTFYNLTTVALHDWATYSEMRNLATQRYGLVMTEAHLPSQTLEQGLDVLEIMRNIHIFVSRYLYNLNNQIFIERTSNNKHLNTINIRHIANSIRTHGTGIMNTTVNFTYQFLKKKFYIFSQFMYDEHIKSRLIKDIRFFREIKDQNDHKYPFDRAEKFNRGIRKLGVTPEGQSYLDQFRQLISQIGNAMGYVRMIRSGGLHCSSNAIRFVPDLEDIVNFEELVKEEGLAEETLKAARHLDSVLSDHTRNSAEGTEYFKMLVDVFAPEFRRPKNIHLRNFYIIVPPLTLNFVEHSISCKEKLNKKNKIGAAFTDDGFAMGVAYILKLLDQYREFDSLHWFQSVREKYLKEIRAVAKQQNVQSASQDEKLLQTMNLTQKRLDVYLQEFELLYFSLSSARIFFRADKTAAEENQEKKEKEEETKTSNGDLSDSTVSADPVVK
Test: competitive isoTOP-ABPP
Format: binding
Settings: 50 uM, 231 sol, in vitro
Outline: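 Competition format: fragment (50 μM activated ester, 100 μM guanidinylating agent) versus vehicle in lysate, then lysine probe STP-alkyne at 0.1 mM for 1 h. Quantitation by light/heavy TEV-tag MS1 peak areas, reported as R.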

Point of comparison: `O=C(CCc1cn(-c2ccccc2)nc1-c1ccccc1)Oc1ccc([N+](=O)[O-])cc1[N+](=O)[O-]` [fragment 29, 2,4-Dinitrophenyl 3-(1,3-diphenyl-1H-pyrazol-4-yl)propanoate], “isoTOP-ABPP reactivity ratio at lysine Q2M389_K302” value 1.1. Against it:
- O=C(CCc1coc2cc(F)ccc2c1=O)Oc1c(F)c(F)c(F)c(F)c1F [fragment 26, Pentafluorophenyl 3-(7-fluoro-4-oxo-4H-chromen-3-yl)propanoate] — higher, 1.8
- COc1cc(CCC(=O)Oc2ccc([N+](=O)[O-])cc2[N+](=O)[O-])cc(OC)c1OC [fragment 33, 2,4-Dinitrophenyl 3-(3,4,5-trimethoxyphenyl)propanoate] — lower, 0.9
- O=C(Oc1ccc([N+](=O)[O-])cc1[N+](=O)[O-])C(c1ccccc1)c1ccccc1 [fragment 30, 2,4-Dinitrophenyl 2,2-diphenylacetate] — higher, 1.6
- O=C(Oc1c(F)c(F)c(F)c(F)c1F)C1CCN(C(=O)OCc2ccccc2)CC1 [fragment 24, 1-Benzyl 4-(pentafluorophenyl) piperidine-1,4-dicarboxylate] — lower, 1.0

Same assay, conditions: 50 uM, in vitro, sol, 231

Point of comparison: `O=C(CCc1coc2cc(F)ccc2c1=O)Oc1ccc([N+](=O)[O-])cc1[N+](=O)[O-]` [fragment 36, 2,4-Dinitrophenyl 3-(7-fluoro-4-oxo-4H-chromen-3-yl)propanoate], “isoTOP-ABPP ratio (R) at liganded lysine Q2M389_K302” value 1.2. Against it:
- O=C(Oc1ccc([N+](=O)[O-])cc1[N+](=O)[O-])c1ccccc1Nc1cccc(C(F)(F)F)c1 [fragment 40, 2,4-Dinitrophenyl 2-((3-(trifluoromethyl)phenyl)amino)benzoate] — lower, 0.9
- O=C(Oc1ccc([N+](=O)[O-])cc1[N+](=O)[O-])c1ccc(-c2ccccc2)cc1 [fragment 37, 2,4-Dinitrophenyl [1,1′-biphenyl]-4-carboxylate] — lower, 0.9
- O=C(Oc1ccc([N+](=O)[O-])cc1[N+](=O)[O-])c1ccc2ccccc2n1 [fragment 35, 2,4-Dinitrophenyl quinoline-2-carboxylate] — higher, 1.4
- CC(C)(C)OC(=O)NCCCC(=O)Oc1ccc([N+](=O)[O-])cc1[N+](=O)[O-] [fragment 41, 2,4-Dinitrophenyl 4-((tert-butoxycarbonyl)amino)butanoate] — higher, 1.5
- O=C(Oc1ccc([N+](=O)[O-])cc1[N+](=O)[O-])c1ccc(Oc2ccccc2)cc1 [fragment 39, 2,4-Dinitrophenyl 4-phenoxybenzoate] — the same, 1.2

Same assay, conditions: 50 uM_231_sol_in vitro

Point of comparison: `O=C(CCc1ccc2c(c1)OCO2)Oc1ccc([N+](=O)[O-])cc1[N+](=O)[O-]` [fragment 45, 2,4-Dinitrophenyl 3-(benzo[d][1,3]dioxol-5-yl)propanoate], “isoTOP-ABPP ratio, lysine Q2M389_K302” value 1.2. Against it:
- NC(=O)c1cc(C(F)(F)F)cc(C(F)(F)F)c1 [fragment 51, reference compound] — higher, 1.5
- N#Cc1ccc(C(=O)Oc2ccc([N+](=O)[O-])cc2[N+](=O)[O-])cc1 [fragment 44, 2,4-Dinitrophenyl 4-cyanobenzoate] — higher, 1.3

Same assay, conditions: 100 uM_231_sol_in vitro

`CC(C)(C)OC(=O)N=C(NC(=O)OC(C)(C)C)n1cccn1` [fragment 50, reference compound] was tested, and the “isoTOP-ABPP ratio, lysine Q2M389_K302” value was 5.3.

Same assay, conditions: Q2M389_K302; 50 uM, 231 sol, in vitro

Point of comparison: `COc1cc(CCC(=O)Oc2c(F)c(F)c(F)c(F)c2F)cc(OC)c1OC` [fragment 23, Pentafluorophenyl 3-(3,4,5-trimethoxyphenyl)propanoate], “R value (DMSO/fragment) for probe 1 labeling” value 1.5. Against it:
- Cn1cc(CC(=O)Oc2c(F)c(F)c(F)c(F)c2F)c2ccccc21 [fragment 22, Pentafluorophenyl 2-(1-methyl-1H-indol-3-yl)acetate] — higher, 3.6
- O=C(CCc1cn(-c2ccccc2)nc1-c1ccccc1)Oc1c(F)c(F)c(F)c(F)c1F [fragment 19, Pentafluorophenyl 3-(1,3-diphenyl-1H-pyrazol-4-yl)propanoate] — lower, 0.8
- O=C(Oc1c(F)c(F)c(F)c(F)c1F)C(c1ccccc1)c1ccccc1 [fragment 20, Pentafluorophenyl 2,2-diphenylacetate] — lower, 0.9

Reference: patent US20210255193A1, “LYSINE REACTIVE PROBES AND USES THEREOF” (The Scripps Research Institute, priority 2017, published 2021)
